Test results: patent US20070167502A1, “Association between a heterocyclic compound and an antioxidant agent” (priority 2004, published 2007)

Test system: Male C57 Black 6 ob/ob mice
Assay: Change in body weight of ob/ob mice after 7 days of treatment
Assay type: in vivo
Details: intraperitoneal route once a day for 7 days, weight after 7 days of treatment
Procedure: Male C57 Black 6 ob/ob mice from 8 to 12 weeks old were used. […] After being weighed, the various compounds under test were injected by the intraperitoneal route once a day for 7 days. The compounds were injected in a solution of DMSO 5%/Solutol 15%/qsp H2O heated at 65° C. to ensure good dissolution. In addition, the solution was pre-heated before injection. The mice were weighed every day and the weight obtained after 7 days of treatment was recorded.

Compound	reduction in the weight gain
COC1=C(OC)C(=O)C(C/C=C(\C)CC/C=C(\C)CC/C=C(\C)CC/C=C(\C)CC/C=C(\C)CC/C=C(\C)CC/C=C(\C)CC/C=C(\C)CC/C=C(\C)CCC=C(C)C)=C(C)C1=O [coenzyme Q10]	does not reduce the weight gain
CCOC(Cc1ccc(OCCn2c(=O)sc3cc(C(=NO)c4ccccc4)ccc32)cc1)C(=O)O (centres unmarked) [2-ethoxy-3-{4-[2-(6-[(hydroxyimino)(phenyl)methyl]-2-oxo-1,3-benzothiazol-3(2H)-yl)ethoxy]phenyl}propanoic acid]	10%
